Results as given in article PMC2410273, “Pharmacokinetic behaviour of the chemoprotectants BNP7787 and mesna after an i.v. bolus injection in rats” (British Journal of Cancer, 2004).
Read-outs that look alike come from different tables or passages of the source.

Tests used:
[1] = set-up: method as in Ormstad et al, 1983; conditions: in vitro, ref Ormstad et al, 1983, cited from earlier work
[2] = system: cisplatin-induced nephrotoxicity; set-up: method as in Hausheer et al, 1998; conditions: dogs; plasma creatinine, BUN, renal histopathology; ref Hausheer et al, 1998; cited from earlier work
[3] = Pharmacokinetics and tissue distribution of BNP7787 and mesna after i.v. bolus of BNP7787 or mesna in WARD tumour-bearing rats; type: in vivo, Fischer rats; conditions: for AUC^5−60 in plasma, fold higher in rats than in nude mice: after equivalent dose of 1000 mg kg^−1 BNP7787, mouse data ref Boven et al, 2002; for AUC, fold lower than the corresponding value in kidney: all other sampled tissue compartments, after either BNP7787 or mesna; for Kp: 1000 mg/kg
Source text: The protocol was approved by the ethics committee for animal experiments of the Vrije Universiteit medical center in Amsterdam, The Netherlands. This committee strictly adheres to the standards required by the UKCCCR for the welfare of animals in neoplasia ([Workman et al, 1998]). Female Fischer rats (144–171 g) were obtained from Harlan (Indianapolis, USA) and were implanted subcutaneously in both flanks with fragments (2–3 mm diameter) of the WARD colorectal tumour ([Cao et al, 1994]). The pharmacokinetic study started at the time the tumours had reached a mean size of approximately 600 mm^3 (range 250–900 mm^3).
Tumour-bearing rats were treated with 1000 mg kg^−1 BNP7787 i.v. or 1000 mg kg^−1 mesna i.v. injected in the tail vein. Approximately 5 min before sample collection, the rats were anaesthetised by i.p. injection with 0.1 ml of a mixture of 75 mg ml^−1 ketamine plus 5 mg ml^−1 xylazine per 100 g weight. Blood was obtained by heart puncture at 0, 5, 15, 30, 45, 60, 90 and 150 min after i.v. administration of BNP7787 or mesna. Thereafter, the kidney, liver and tumour were removed by surgical dissection. In addition, at time points 0 and 30 min, skeletal muscle attached to the thighbone was also collected. At each time point three rats were killed.
Immediately after collection, the blood samples, which were collected in cooled EDTA-containing tubes (potassium-EDTA 1.6 mg EDTA ml^−1 blood; Sarstedt, Germany), were centrifuged at 4°C for 10 min at 4000 g. Plasma was separated and immediately deproteinised by adding one volume of sulphuric acid (0.33 M) and one volume of sodium hexametaphosphate (5 g/100 ml). After vortexing and centrifugation for 2 min at 12 000 g, the supernatant was stored in aliquots at −80°C until analysis. One volume of RBCs was washed with 1 volume of cold phosphate-buffered saline (PBS) of pH 7.4 containing sodium phosphate (10 mM) and NaCl (140 mM; Hospital Pharmacy, VUmc, Amsterdam, The Netherlands). This mixture was centrifuged for 2 min, 12 000 g at 4°C. After removing the PBS, the remaining RBCs were stored in liquid nitrogen until further processing.
The kidney, liver, tumour and skeletal muscle were washed with cold PBS before storage in liquid nitrogen. After collection of all the samples at the different time points, tissue homogenates of kidney, liver, tumour and skeletal muscle were prepared by pulverisation using a Braun Micro-dismembrator (Salm and Kipp; Breukelen, The Netherlands) according to the method described by [Peters et al (1986)]. An appropriate volume of aqueous EDTA (1 g l^−1) was added to the RBC and tissue homogenates to obtain a concentration of 100 mg tissue (wet weight) per ml. After sonification (10 min) and vortexing (10 min), the samples were subsequently deproteinised by adding 1 volume of cold sulphuric acid (0.33 M) and 1 volume of cold sodium hexametaphosphate (5 g/100 ml). After thorough vortexing and centrifugation (2 min at 8500 g at 4°C), the supernatants were stored in aliquots at −80° until analysis.
BNP7787 and mesna concentrations were determined selectively in one run using micro-HPLC with a dual electrochemical detector (dual ECD) ([Verschraagen et al, 2003b]). Briefly, citrate-NaOH buffer (40 μl of a mixture of 1 ml 5.0 M sodium hydroxide and 4 ml 0.5 M tri-sodium citrate buffer, pH 3.0) was added to 200 μl of deproteinised plasma, RBC or tissue sample, and the sample was injected into the micro-HPLC system which consisted of a Phenomenex C18 guard column (10 μm, 4 × 2.0 mm) and a Phenomenex Prodigy C18 ODS-3 column (5 μm, 100 × 1.0 mm; Bester, Amstelveen, The Netherlands).

[4] = system: cisplatin-induced toxicity; set-up: method as in Boven et al, 2002; conditions: nude mice; in the presence of 1000 mg kg^−1 BNP7787; ref Boven et al, 2002; cited from earlier work
[5] = system: cisplatin-induced nephrotoxicity; set-up: method as in Hausheer et al, 1998; conditions: rats, ref Hausheer et al, 1998, cited from earlier work
[6] = system: antitumour activity of cisplatin; set-up: method as in Boven et al, 2002; conditions: tumour-bearing nude mice; given preceding cisplatin; ref Boven et al, 2002; cited from earlier work
[7] = system: antitumour activity of cisplatin; set-up: method as in Hausheer et al, 1998; conditions: tumour-bearing rats; given preceding cisplatin; ref Hausheer et al, 1998; cited from earlier work
[8] = set-up: method as in Hausheer et al, 1998; conditions: dogs, ref Hausheer et al, 1998; cited from earlier work
[9] = set-up: method as in Hausheer et al, 1998; conditions: rats, ref Hausheer et al, 1998; cited from earlier work
[10] = set-up: method as in Verschraagen et al, in press; conditions: cancer patients, ref Verschraagen et al, in press, cited from earlier work
[11] = system: intestinal and renal epithelial cells; set-up: method as in earlier work; conditions: isolated cells, via facilitated transport, ref Ormstad and Uehara, 1982, Ormstad et al, 1983, Brock et al, 1984, Ormstad and Ohno; cited from earlier work
[12] = set-up: method as in Boven et al, 2002; conditions: nude mice; after BNP7787 administration; ref Boven et al, 2002; cited from earlier work
[13] = 30 min after 1000 mg kg^−1 BNP7787 i.v.
[14] = 30 min after 1000 mg kg^−1 mesna i.v.
[15] = RBC, each 1000 mg kg^−1 i.v., P<0.01
[16] = after 1000 mg kg^−1 BNP7787 i.v., RBC
[17] = after 1000 mg kg^−1 BNP7787 i.v., kidney
[18] = after 1000 mg kg^−1 BNP7787 i.v., liver
[19] = after 1000 mg kg^−1 BNP7787 i.v., plasma
[20] = after 1000 mg kg^−1 BNP7787 i.v., tumour
[21] = after 1000 mg kg^−1 mesna i.v., kidney
[22] = after 1000 mg kg^−1 mesna i.v., plasma
[23] = after 1000 mg kg^−1 mesna i.v., tumour
[24] = female, Fischer, rat, all tissue compartments other than kidney / plasma, iv, after 1000 mg kg^−1 mesna i.v., all tissue compartments other than kidney, read-out: tissue–plasma AUC ratio
[25] = female, Fischer, rat, kidney / plasma, iv, after 1000 mg kg^−1 BNP7787 i.v., read-out: kidney–plasma AUC ratio
[26] = female, Fischer, rat, kidney / plasma, iv, after 1000 mg kg^−1 mesna i.v., read-out: kidney–plasma AUC ratio
[27] = female, Fischer, rat, liver / plasma, iv, after 1000 mg kg^−1 BNP7787 i.v., read-out: liver–plasma AUC ratio
[28] = female, Fischer, rat, red blood cells / plasma, iv, after 1000 mg kg^−1 BNP7787 i.v., read-out: RBC–plasma AUC ratio
[29] = female, Fischer, rat, tumour / plasma, iv, after 1000 mg kg^−1 BNP7787 i.v., read-out: tumour–plasma AUC ratio
[30] = plasma, each 1000 mg kg^−1 i.v., P<0.01

SMILES: O=S(=O)([O-])CCSSCCS(=O)(=O)[O-].[Na+].[Na+] [BNP7787, disodium 2,2′-dithio-bis-ethane sulphonate]
- reduction of BNP7787 into mesna ([1]; cytosol fraction of the kidney cortex): large reduction
- reduction of BNP7787 into mesna ([1]; plasma): very limited
- protection against cisplatin-induced nephrotoxicity [2]: completely protected
- mean concentration (±s.d.) in skeletal muscle [3, 13]: 36.9 ± 26.0 nmol/g
- mean concentration (±s.d.) in skeletal muscle [3, 14]: 30.3 ± 17.6 nmol/g
- AUC (printed: concentration) after BNP7787 administration compared with after mesna administration [3, 15]: six-fold lower
- AUC of BNP7787, fold lower than AUC of mesna [3, 16]: 11.4 fold
- time detectable [3, 16]: 30 min
- time of highest concentrations / peak levels ([3]; after 1000 mg kg^−1 BNP7787 i.v., all compartments): 5 min
- AUC of BNP7787, fold lower than AUC of mesna [3, 17]: 2.7 fold
- time detectable [3, 17]: 90 min
- AUC of BNP7787, fold lower than AUC of mesna [3, 18]: 39.8 fold
- time detectable [3, 18]: 30 min
- AUC of BNP7787 relative to AUC of mesna [3, 19]: almost two-fold higher
- time detectable [3, 19]: 90 min
- AUC of BNP7787, fold lower than AUC of mesna [3, 20]: 5.1 fold
- time detectable [3, 20]: 45 min
- time detectable [3, 21]: at least 150 min
- time detectable [3, 22]: at least 150 min
- time detectable [3, 23]: at least 150 min
- AUC^5−60 in plasma, fold higher in rats than in nude mice [3]: 2.7 fold
- AUC, fold lower than the corresponding value in kidney [3]: at least 5.5 fold
- Kp [3, 24]: < 0.3
- Kp [3, 25]: 0.9
- Kp [3, 26]: 2.1
- Kp [3, 27]: 0.01
- Kp [3, 28]: 0.01
- Kp [3, 29]: 0.08
- AUC after BNP7787 administration compared with after mesna administration ([3]; kidney, each 1000 mg kg^−1 i.v.): smaller, but not significant difference
- AUC after BNP7787 administration compared with after mesna administration ([3]; liver, each 1000 mg kg^−1 i.v.): not significantly different
- AUC after BNP7787 administration compared with after mesna administration [3, 30]: more than three-fold higher
- AUC after BNP7787 administration compared with after mesna administration ([3]; tumour, each 1000 mg kg^−1 i.v.): not significantly different
- weight loss on cisplatin dose increase from 5 to 8 mg kg^−1 [4]: weight loss increased
- cisplatin dose (mg kg^−1) tolerated when preceded by BNP7787 ([5]; 750 or 1500 mg kg^−1 BNP7787 i.v.): could be safely increased from 6 to 9
- protection against cisplatin-induced nephrotoxicity ([5]; plasma creatinine, BUN, renal histopathology): completely protected
- effect on antitumour activity of cisplatin [6]: did not reduce the antitumour activity of cisplatin
- effect on antitumour activity of cisplatin [7]: did not reduce the antitumour activity of cisplatin
- nontoxic dose after i.v. administration [8]: 2000 mg/kg
- nontoxic dose after i.v. administration [9]: 4000 mg/kg
- pharmacokinetic interaction with intact cisplatin ([10]; BNP7787 18.4–41 g m^−2): no mutual pharmacokinetic interaction
- relatively nontoxic dose ([10]; phase I, BNP7787 preceding cisplatin): ≤ 41 g m^−2
- cellular uptake [11]: preferentially taken up in intestinal and renal epithelial cells

SMILES: O=S(=O)(O)CCS [mesna, sodium 2-mercapto ethane sulphonate]
- AUC of mesna in plasma as % of the AUC of BNP7787 [12]: approximately 24%
- mean concentration (±s.d.) in skeletal muscle [3, 13]: 355.1 ± 113.0 nmol/g
- mean concentration (±s.d.) in skeletal muscle [3, 14]: 665.1 ± 209.1 nmol/g
- AUC, fold lower after BNP7787 than after mesna administration [3, 15]: 6.2 fold
- time detectable [3, 16]: up to 90 min
- time detectable [3, 17]: at least 150 min
- time detectable [3, 18]: up to 90 min
- time detectable [3, 19]: up to 90 min
- time detectable [3, 20]: at least 150 min
- time detectable ([3]; after 1000 mg kg^−1 mesna i.v., RBC): at least 150 min
- time detectable [3, 21]: at least 150 min
- time detectable ([3]; after 1000 mg kg^−1 mesna i.v., liver): at least 150 min
- time detectable [3, 22]: at least 150 min
- AUC of mesna relative to AUC of BNP7787 ([3]; after 1000 mg kg^−1 mesna i.v., plasma and all tissues sampled): at least seven-fold higher
- time detectable [3, 23]: at least 150 min
- AUC^5−60 in plasma, fold higher in rats than in nude mice [3]: approximately 5.2 fold
- AUC of mesna in tumour relative to AUC of mesna in plasma ([3]; after mesna administration): at least three-fold lower
- AUC, fold lower than the corresponding value in kidney [3]: at least 5.5 fold
- Kp [3, 24]: < 0.3
- Tmax ([3]; female, Fischer, rat, iv, after 1000 mg kg^−1 BNP7787 i.v., liver, read-out: time of maximal concentration in liver (converted)): 5 min
- Kp [3, 25]: 4.5
- Kp [3, 26]: 1.7
- Kp [3, 27]: 0.5
- Kp [3, 28]: 0.1
- Kp [3, 29]: 0.7
- AUC, fold lower after BNP7787 than after mesna administration ([3]; kidney, each 1000 mg kg^−1 i.v., P<0.01): 1.9 fold
- AUC after BNP7787 administration compared with after mesna administration ([3]; liver, each 1000 mg kg^−1 i.v.): similar
- AUC after BNP7787 administration compared with after mesna administration [3, 30]: five-fold lower
- AUC of mesna in plasma as % of the AUC of BNP7787 ([3]; rats, after BNP7787 administration): approximately 50%
- AUC, fold lower after BNP7787 than after mesna administration ([3]; tumour, each 1000 mg kg^−1 i.v., not statistically significant): 2.1 fold
- effect on antitumour activity of cisplatin [6]: reduce the specific growth delay
- effect on antitumour activity of cisplatin [7]: can reduce the number of complete and partial tumour remissions
